According to PubChem BioAssay (NCI):
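Each compound was tested at five concentrations against cells in 96-well plates for 48 hours. TGI: concentration producing complete growth inhibition.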

What was measured:
Test in all cases: NCI tumour cell line growth inhibition, 48 h
ACHN renal = tested on: ACHN renal
UO-31 renal = tested on: UO-31 renal
CAKI-1 renal = tested on: CAKI-1 renal
TK-10 renal = tested on: TK-10 renal
COLO 205 colon = tested on: COLO 205 colon
HOP-92 NSCLC = tested on: HOP-92 NSCLC
SNB-19 CNS = tested on: SNB-19 CNS
U251 CNS = tested on: U251 CNS
SNB-75 CNS = tested on: SNB-75 CNS
RXF 393 renal = tested on: RXF 393 renal
SF-268 CNS = tested on: SF-268 CNS
NCI-H23 lung = tested on: NCI-H23 lung
MCF7 breast = tested on: MCF7 breast
SK-MEL-2 melanoma = tested on: SK-MEL-2 melanoma
NCI-H522 lung = tested on: NCI-H522 lung
NCI-H460 lung = tested on: NCI-H460 lung
T-47D breast = tested on: T-47D breast
HS 578T breast = tested on: HS 578T breast
EKVX NSCLC = tested on: EKVX NSCLC
OVCAR-3 ovarian = tested on: OVCAR-3 ovarian
SK-MEL-5 melanoma = tested on: SK-MEL-5 melanoma
HT29 colon = tested on: HT29 colon
HCT-116 colon = tested on: HCT-116 colon
OVCAR-4 ovarian = tested on: OVCAR-4 ovarian
MDA-MB-231 breast = tested on: MDA-MB-231 breast
A549 NSCLC = tested on: A549 NSCLC
OVCAR-8 ovarian = tested on: OVCAR-8 ovarian
SF-539 CNS = tested on: SF-539 CNS
SF-295 CNS = tested on: SF-295 CNS
MOLT-4 leukemia = tested on: MOLT-4 leukemia
NCI/ADR-RES ovarian = tested on: NCI/ADR-RES ovarian
BT-549 breast = tested on: BT-549 breast
SK-MEL-28 melanoma = tested on: SK-MEL-28 melanoma
KM12 colon = tested on: KM12 colon
MDA-MB-435 = tested on: MDA-MB-435
MDA-N = tested on: MDA-N
HOP-62 NSCLC = tested on: HOP-62 NSCLC
UACC-257 melanoma = tested on: UACC-257 melanoma
786-0 renal = tested on: 786-0 renal
SN12C renal = tested on: SN12C renal
HCT-15 colon = tested on: HCT-15 colon
DU-145 prostate = tested on: DU-145 prostate
HL-60(TB) leukemia = tested on: HL-60(TB) leukemia
IGROV1 ovarian = tested on: IGROV1 ovarian
LOX IMVI melanoma = tested on: LOX IMVI melanoma
UACC-62 melanoma = tested on: UACC-62 melanoma
K-562 leukemia = tested on: K-562 leukemia
SK-OV-3 ovarian = tested on: SK-OV-3 ovarian
HCC-2998 colon = tested on: HCC-2998 colon
M14 melanoma = tested on: M14 melanoma
SW-620 colon = tested on: SW-620 colon
MALME-3M melanoma = tested on: MALME-3M melanoma
NCI-H226 lung = tested on: NCI-H226 lung
PC-3 prostate = tested on: PC-3 prostate
RPMI-8226 leukemia = tested on: RPMI-8226 leukemia
CCRF-CEM leukemia = tested on: CCRF-CEM leukemia
A498 renal = tested on: A498 renal
OVCAR-5 ovarian = tested on: OVCAR-5 ovarian
SR leukemia = tested on: SR leukemia

Measured: TGI

Cc1ccc(S(=O)(=O)c2scc(-c3ccccc3)c2C)cc1
not listed: CCRF-CEM leukemia | A498 renal | OVCAR-5 ovarian | SR leukemia
> 100 µM: all other assays above

COc1ccc2oc(=N)c(C(=O)Nc3cccc4ccccc34)cc2c1
30.8 µM: OVCAR-3 ovarian
63.9 µM: MCF7 breast
30.5 µM: UO-31 renal
39.2 µM: A498 renal
17.1 µM: UACC-62 melanoma
85.7 µM: SK-MEL-2 melanoma
57.9 µM: RPMI-8226 leukemia
49.8 µM: MALME-3M melanoma
18.8 µM: MDA-N
28 µM: 786-0 renal
26.9 µM: HOP-62 NSCLC
48 µM: SNB-19 CNS
79.1 µM: MDA-MB-231 breast
20 µM: RXF 393 renal
72.1 µM: HS 578T breast
28.5 µM: SR leukemia
32.9 µM: SNB-75 CNS
25.4 µM: SF-295 CNS
31.1 µM: PC-3 prostate
50.2 µM: U251 CNS
40.3 µM: OVCAR-4 ovarian
51.1 µM: TK-10 renal
11.1 µM: MDA-MB-435
92.7 µM: SK-OV-3 ovarian
not listed: HOP-92 NSCLC | NCI-H522 lung | OVCAR-8 ovarian | MOLT-4 leukemia | IGROV1 ovarian | LOX IMVI melanoma
> 100 µM: all other assays above

O=C(c1ccccc1)c1ccc2c(c1)nc1n2C(c2c(Cl)cccc2Cl)SC1 (stereo not given)
not listed: K-562 leukemia | CCRF-CEM leukemia
> 100 µM: all other assays above

O=C1C=CC2CCC1C2 (stereo not given)
90.2 µM: SF-539 CNS
58.6 µM: SF-268 CNS
98.5 µM: NCI-H226 lung
80.4 µM: HS 578T breast
96.3 µM: SNB-19 CNS
61.6 µM: OVCAR-5 ovarian
72.4 µM: SK-OV-3 ovarian
61.5 µM: MDA-MB-435
89.9 µM: SK-MEL-28 melanoma | HCC-2998 colon
65.9 µM: NCI-H522 lung
73.3 µM: BT-549 breast
not listed: HOP-92 NSCLC | RXF 393 renal | OVCAR-4 ovarian | SR leukemia
> 100 µM: all other assays above
